These results are taken from ChEMBL document CHEMBL5465560, “Selectivity Literature for EUbOPEN Chemogenomic Library” (2024).

Experiment [1] concerns the target Acetylcholine receptor subunit alpha (Homo sapiens, UniProt P02708). Kind of experiment: Selectivity interaction (Panel of kinases, GPCRs, ion channels and transporters (enzymatic assay)) EUB0000266bCl CHRNA1.
For experiment [2], the target named is Tyrosine-protein kinase Fes/Fps (Homo sapiens) (UniProt P07332). The conditions noted are these: at 10 µM.
For experiment [3], the system named is T1, Receptor-type tyrosine-protein kinase FLT3 (Homo sapiens), P36888 [D835H].
T1 sequence (whole entry): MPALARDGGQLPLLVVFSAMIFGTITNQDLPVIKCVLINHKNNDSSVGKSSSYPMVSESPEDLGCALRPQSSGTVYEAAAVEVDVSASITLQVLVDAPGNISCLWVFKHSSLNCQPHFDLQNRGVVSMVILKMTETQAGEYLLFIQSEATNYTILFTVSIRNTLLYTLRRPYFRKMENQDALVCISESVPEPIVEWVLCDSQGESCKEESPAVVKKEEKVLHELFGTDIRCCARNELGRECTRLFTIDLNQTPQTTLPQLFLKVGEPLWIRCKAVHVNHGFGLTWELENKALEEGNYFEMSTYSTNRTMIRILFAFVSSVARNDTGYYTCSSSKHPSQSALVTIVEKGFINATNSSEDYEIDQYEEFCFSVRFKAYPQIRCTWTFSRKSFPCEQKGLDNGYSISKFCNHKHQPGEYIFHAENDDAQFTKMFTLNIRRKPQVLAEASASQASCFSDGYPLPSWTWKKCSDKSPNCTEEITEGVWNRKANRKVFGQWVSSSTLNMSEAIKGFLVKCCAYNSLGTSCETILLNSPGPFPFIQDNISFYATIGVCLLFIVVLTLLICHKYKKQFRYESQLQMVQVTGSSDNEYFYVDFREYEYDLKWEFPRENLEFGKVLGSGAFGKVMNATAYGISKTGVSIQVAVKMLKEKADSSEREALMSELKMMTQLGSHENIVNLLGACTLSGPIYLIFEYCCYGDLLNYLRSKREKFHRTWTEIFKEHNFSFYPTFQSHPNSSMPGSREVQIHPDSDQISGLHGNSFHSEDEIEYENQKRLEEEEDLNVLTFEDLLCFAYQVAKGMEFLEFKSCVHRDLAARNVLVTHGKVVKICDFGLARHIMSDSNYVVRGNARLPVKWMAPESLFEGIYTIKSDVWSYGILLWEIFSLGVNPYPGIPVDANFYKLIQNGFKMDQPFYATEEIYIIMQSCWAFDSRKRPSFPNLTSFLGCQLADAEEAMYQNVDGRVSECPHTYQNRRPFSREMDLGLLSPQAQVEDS
The conditions noted are these: at 10 µM.

Another experiment has as its target Ephrin type-A receptor 4 (Homo sapiens, UniProt P54764). Kind of experiment: Selectivity interaction (KinomeScan (DiscoverX)) EUB0000092b EPHA4. The conditions noted are these: at 10 µM.
The target of experiment [4] is Mitogen-activated protein kinase 11 (Homo sapiens) (UniProt Q15759). Description: Selectivity interaction (KinomeScan (DiscoverX)) EUB0000092b MAPK11. The conditions noted are these: at 10 µM.
Mitogen-activated protein kinase 11 (Homo sapiens), sequence (Q15759 whole entry): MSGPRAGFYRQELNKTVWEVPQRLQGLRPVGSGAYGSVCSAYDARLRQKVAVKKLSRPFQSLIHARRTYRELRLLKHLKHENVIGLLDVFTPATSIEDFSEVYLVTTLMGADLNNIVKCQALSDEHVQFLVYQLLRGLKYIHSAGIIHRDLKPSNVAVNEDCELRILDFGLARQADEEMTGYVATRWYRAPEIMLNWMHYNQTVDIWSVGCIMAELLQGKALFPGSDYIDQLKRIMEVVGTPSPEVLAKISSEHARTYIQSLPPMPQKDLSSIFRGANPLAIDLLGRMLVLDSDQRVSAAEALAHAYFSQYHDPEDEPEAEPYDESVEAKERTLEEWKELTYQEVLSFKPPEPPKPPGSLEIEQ
Experiment [5] addresses T2, Receptor-interacting serine/threonine-protein kinase 2 (Homo sapiens, UniProt O43353). Kind of experiment: Selectivity interaction (KinomeScan (DiscoverX)) EUB0000092b RIPK2. The conditions noted are these: at 10 µM.
In experiment [6] the target is Mitogen-activated protein kinase 8 (Homo sapiens, UniProt P45983). Kind of experiment: Selectivity interaction (KinomeScan (DiscoverX)) EUB0001049a MAPK8. The conditions noted are these: at 1 µM.
The target in experiment [7] is Ribosomal protein S6 kinase alpha-6 (Homo sapiens, UniProt Q9UK32). Description: Selectivity interaction (KinomeScan (DiscoverX)) EUB0001049a RPS6KA6. The conditions noted are these: at 1 µM.
Ribosomal protein S6 kinase alpha-6, sequence (Q9UK32 whole entry): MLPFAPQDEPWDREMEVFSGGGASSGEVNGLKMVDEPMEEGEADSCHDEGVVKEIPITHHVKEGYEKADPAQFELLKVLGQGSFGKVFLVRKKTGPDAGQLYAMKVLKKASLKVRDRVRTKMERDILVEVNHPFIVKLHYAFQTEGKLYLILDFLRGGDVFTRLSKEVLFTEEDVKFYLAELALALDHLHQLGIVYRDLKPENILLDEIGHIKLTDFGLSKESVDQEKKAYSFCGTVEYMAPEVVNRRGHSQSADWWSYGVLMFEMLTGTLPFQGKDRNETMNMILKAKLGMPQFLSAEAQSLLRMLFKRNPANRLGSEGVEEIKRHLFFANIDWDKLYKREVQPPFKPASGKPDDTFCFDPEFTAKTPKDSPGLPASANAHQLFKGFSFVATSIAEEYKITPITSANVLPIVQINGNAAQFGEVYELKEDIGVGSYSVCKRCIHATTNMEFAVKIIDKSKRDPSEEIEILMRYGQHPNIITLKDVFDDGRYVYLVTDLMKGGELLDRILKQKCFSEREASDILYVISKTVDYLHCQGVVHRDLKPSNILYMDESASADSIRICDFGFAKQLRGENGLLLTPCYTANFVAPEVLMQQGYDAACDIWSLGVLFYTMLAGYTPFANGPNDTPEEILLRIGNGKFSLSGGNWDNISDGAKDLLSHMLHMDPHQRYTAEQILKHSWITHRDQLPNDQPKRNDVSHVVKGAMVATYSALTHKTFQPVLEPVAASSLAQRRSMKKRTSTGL
Experiment [8] concerns the target Mitogen-activated protein kinase kinase kinase 9 (Homo sapiens) (UniProt P80192). Description: Selectivity interaction (KinomeScan (DiscoverX)) EUB0001049a MAP3K9. The conditions noted are these: at 1 µM.
Experiment [9] deals with T2, Receptor-interacting serine/threonine-protein kinase 2. Kind of experiment: Selectivity interaction (KinomeScan (DiscoverX)) EUB0000655a RIPK2. The conditions noted are these: at 10 µM.
Experiment [10] concerns the target Proto-oncogene tyrosine-protein kinase Src (Homo sapiens, UniProt P12931). Kind of experiment: Selectivity interaction (KinomeScan (DiscoverX)) EUB0001868a SRC. The conditions noted are these: at 1 µM.
The target of experiment [11] is Serine/threonine-protein kinase MARK2 (Homo sapiens) (UniProt Q7KZI7). Kind of experiment: Selectivity interaction (Kinase panel (Z-LYTE Assay)) EUB0001632a MARK2. The conditions noted are these: at 10 µM.
Serine/threonine-protein kinase MARK2 (Homo sapiens), sequence (Q7KZI7 whole entry): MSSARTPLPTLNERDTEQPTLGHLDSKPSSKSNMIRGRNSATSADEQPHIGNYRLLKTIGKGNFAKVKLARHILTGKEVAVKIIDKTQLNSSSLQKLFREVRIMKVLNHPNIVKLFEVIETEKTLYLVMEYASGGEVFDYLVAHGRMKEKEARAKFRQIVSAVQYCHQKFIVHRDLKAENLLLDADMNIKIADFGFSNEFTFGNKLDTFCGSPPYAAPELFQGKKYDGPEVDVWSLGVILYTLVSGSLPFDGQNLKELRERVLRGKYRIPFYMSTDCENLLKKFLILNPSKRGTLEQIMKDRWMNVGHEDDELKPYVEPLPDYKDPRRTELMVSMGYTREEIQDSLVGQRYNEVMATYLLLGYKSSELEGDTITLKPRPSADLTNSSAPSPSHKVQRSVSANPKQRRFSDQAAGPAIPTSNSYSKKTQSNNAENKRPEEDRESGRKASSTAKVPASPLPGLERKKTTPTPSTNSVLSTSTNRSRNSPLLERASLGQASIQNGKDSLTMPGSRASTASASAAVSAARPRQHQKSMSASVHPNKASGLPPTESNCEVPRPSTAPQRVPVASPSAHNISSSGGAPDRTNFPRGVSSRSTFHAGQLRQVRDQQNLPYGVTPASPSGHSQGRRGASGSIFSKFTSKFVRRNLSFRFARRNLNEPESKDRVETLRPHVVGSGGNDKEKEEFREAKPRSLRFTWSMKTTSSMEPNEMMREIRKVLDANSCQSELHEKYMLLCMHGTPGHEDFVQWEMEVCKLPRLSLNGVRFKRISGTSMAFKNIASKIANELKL
The target in experiment [12] is SRSF protein kinase 2 (Homo sapiens) (UniProt P78362). Kind of experiment: Selectivity interaction (Kinase panel (Z-LYTE Assay)) EUB0001632a SRPK2. The conditions noted are these: at 10 µM.
SRSF protein kinase 2 (Homo sapiens), sequence (P78362 whole entry, looked up): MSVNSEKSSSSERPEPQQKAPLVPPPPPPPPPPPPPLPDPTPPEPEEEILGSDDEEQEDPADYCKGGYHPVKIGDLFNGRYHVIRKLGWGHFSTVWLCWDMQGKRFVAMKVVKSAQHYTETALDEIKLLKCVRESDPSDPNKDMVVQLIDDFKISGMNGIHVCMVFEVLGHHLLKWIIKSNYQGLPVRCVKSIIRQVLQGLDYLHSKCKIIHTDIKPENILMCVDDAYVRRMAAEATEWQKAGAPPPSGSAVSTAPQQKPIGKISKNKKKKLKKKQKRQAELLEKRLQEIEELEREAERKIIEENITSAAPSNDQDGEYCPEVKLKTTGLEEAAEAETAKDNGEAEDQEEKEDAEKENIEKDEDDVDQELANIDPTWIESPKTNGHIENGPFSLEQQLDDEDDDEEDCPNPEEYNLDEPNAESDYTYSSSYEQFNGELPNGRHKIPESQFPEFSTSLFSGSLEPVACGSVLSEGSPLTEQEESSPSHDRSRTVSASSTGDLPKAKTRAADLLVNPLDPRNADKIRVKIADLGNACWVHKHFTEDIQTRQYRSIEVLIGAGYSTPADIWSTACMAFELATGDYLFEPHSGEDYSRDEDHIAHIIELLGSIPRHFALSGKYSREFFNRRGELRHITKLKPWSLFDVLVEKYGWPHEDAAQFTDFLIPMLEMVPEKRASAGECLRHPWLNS
For experiment [13], the target named is Death-associated protein kinase 2 (Homo sapiens) (UniProt Q9UIK4). Kind of experiment: Selectivity interaction (LanthaScreen Eu Kinase Binding Assay) EUB0001632a DAPK2. The conditions noted are these: at 10 µM. Background: Time-resolved FRET reads energy transfer from a long-lived donor to a nearby acceptor.
Death-associated protein kinase 2 (Homo sapiens), sequence (Q9UIK4 whole entry, looked up): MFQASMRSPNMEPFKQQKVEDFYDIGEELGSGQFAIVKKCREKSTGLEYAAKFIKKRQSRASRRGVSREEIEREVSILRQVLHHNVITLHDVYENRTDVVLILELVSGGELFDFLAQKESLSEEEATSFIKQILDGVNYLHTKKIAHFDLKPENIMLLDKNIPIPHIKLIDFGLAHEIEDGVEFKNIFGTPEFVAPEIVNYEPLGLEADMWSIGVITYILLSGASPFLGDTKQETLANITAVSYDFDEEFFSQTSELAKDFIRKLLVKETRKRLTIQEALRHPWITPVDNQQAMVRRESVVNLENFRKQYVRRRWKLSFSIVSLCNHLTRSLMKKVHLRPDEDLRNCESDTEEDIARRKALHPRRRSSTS
The nature of experiment [14]: Selectivity interaction (ActivX KiNativ screen (kinase selectivity in THP-1 cell lysates)) EUB0000639a STLK6. The conditions noted are these: Selectivity number of off-targets 0; Selectivity number of targets 283; Source Knowledge https://pubmed.ncbi.nlm.nih.gov/28498658/; at 0.04 µM.
In experiment [15] the target is T3, Interleukin-1 receptor-associated kinase 3 (Homo sapiens) (UniProt Q9Y616).
T3 sequence (whole entry): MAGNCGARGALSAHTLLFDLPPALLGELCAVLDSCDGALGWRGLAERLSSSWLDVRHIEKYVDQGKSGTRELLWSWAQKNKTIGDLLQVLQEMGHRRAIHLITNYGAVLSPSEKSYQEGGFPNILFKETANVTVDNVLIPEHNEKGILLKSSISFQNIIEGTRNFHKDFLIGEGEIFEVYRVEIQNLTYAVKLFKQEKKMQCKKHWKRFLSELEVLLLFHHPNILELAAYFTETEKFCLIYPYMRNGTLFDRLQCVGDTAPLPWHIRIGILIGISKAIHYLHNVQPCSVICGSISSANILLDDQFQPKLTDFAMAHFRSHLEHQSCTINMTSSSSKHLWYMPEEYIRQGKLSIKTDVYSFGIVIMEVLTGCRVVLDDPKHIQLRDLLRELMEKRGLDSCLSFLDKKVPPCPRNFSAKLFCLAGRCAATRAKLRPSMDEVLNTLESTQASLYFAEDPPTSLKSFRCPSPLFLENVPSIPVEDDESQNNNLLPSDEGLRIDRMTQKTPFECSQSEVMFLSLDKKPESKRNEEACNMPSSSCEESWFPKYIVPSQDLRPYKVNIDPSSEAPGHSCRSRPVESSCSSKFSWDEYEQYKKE
Description: Selectivity interaction (ActivX KiNativ screen (ex vivo kinase selectivity in human PBMCs)) EUB0001619a IRAK3. The conditions noted are these: PBMC, at 1 µM. It is filed as cell-based.

Experiment [16] concerns the target Serine/threonine-protein kinase 38 (Homo sapiens) (UniProt Q15208). Description: Selectivity interaction (Kinase panel (KiNativ target engagement assay in Jurkat cells)) EUB0001635a STK38. The conditions noted are these: Selectivity number of off-targets 0.0, Selectivity number of targets 233.0, Source Knowledge https://www.sciencedirect.com/science/article/pii/S2451945619300674?via%3Dihub, at 1 µM. It counts as cell-based.

T2 sequence (O43353 whole entry): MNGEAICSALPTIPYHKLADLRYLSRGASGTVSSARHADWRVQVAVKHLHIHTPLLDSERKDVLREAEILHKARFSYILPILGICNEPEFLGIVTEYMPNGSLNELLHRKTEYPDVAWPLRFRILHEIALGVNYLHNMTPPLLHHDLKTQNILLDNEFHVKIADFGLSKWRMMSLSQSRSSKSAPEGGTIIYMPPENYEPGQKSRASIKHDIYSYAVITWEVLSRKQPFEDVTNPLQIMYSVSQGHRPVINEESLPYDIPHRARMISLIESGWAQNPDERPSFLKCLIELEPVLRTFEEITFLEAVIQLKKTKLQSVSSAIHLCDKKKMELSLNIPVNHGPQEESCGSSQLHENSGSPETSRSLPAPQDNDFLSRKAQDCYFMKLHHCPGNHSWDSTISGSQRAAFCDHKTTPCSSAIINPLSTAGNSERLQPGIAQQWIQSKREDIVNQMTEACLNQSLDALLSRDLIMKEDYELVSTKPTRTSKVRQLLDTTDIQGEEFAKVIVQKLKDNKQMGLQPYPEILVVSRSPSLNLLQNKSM
Ephrin type-A receptor 4, sequence (P54764 whole entry): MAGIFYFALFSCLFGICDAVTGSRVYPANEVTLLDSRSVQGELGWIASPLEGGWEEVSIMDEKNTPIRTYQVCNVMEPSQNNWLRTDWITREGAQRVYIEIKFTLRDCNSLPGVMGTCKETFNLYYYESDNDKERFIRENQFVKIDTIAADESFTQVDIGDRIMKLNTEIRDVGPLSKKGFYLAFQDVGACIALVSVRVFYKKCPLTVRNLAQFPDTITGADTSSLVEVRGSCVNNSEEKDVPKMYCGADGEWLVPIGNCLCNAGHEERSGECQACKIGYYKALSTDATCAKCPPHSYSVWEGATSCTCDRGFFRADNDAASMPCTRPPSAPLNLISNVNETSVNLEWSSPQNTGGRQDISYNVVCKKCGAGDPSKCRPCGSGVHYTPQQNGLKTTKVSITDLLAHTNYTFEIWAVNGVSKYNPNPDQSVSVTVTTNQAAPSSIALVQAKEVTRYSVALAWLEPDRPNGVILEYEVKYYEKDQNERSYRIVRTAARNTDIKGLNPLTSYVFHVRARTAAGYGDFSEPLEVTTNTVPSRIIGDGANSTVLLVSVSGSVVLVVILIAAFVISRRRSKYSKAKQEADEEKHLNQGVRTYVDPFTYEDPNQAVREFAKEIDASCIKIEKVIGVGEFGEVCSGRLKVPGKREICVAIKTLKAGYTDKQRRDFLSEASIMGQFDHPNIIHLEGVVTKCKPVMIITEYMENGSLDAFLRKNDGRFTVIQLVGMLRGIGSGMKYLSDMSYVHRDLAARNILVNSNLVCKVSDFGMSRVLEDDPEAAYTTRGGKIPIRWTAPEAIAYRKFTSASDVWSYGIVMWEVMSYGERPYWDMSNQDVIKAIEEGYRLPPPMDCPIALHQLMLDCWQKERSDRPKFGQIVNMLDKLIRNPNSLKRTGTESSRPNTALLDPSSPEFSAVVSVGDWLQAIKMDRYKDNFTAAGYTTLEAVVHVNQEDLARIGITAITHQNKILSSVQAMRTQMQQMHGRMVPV
Proto-oncogene tyrosine-protein kinase Src, sequence (P12931 2-536 limits assumed): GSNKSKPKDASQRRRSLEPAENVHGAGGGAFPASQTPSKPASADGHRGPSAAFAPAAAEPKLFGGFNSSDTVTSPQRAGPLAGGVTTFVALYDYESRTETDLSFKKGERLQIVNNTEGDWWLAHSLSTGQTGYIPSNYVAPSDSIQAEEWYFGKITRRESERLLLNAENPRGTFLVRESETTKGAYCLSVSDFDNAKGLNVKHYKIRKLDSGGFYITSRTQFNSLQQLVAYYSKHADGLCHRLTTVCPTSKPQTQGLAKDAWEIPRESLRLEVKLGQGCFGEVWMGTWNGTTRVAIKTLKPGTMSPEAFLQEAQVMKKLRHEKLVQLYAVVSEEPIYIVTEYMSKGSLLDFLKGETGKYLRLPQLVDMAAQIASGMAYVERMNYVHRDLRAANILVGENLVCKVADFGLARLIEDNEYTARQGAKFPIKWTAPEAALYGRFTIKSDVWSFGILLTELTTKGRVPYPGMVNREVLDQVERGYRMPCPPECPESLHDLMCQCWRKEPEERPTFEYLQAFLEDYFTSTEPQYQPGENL

For the compound `CCn1c(-c2nc3cc(C(=O)N4CCCC(N)C4)ccc3n2C)cc2ccccc21` (configuration not stated), in experiment [1], the pXC50 is < 4.3 M.

As to `CCN(CC)CCCCNc1ncc2cc(-c3cc(OC)cc(OC)c3)c(NC(=O)NC(C)(C)C)nc2n1`, the % of control in experiment [2] and in experiment [3] was 100% each time.

For `CCC(=O)N1CCN(c2ccc(-n3c(=O)ccc4cnc5ccc(-c6cnc7ccccc7c6)cc5c43)cc2C(F)(F)F)CC1`, the % of control at Ephrin type-A receptor 4 came out at 90%; in experiment [4], 53%; in [5], 44%.

Take `COc1cc(Nc2nc(C)cc(-c3cnn4nc(OC)ccc34)n2)cc(C(F)(F)F)c1`: the % of control in experiment [6] came out at 88%; in [7], 70%; in experiment [8] it was 96%.

Regarding `CN(C)CCOc1ccc(-c2nc(-c3ccncc3)c(-c3ccc4c(c3)CC/C4=N\O)[nH]2)cc1`, the % of control in experiment [9] was found to be 14%.

For the compound `Cc1cc(-c2ccnc(Nc3cnn(C)c3)n2)ccc1CNC(=O)N1CC(OC(C)C)C1`, in [10], the % of control is 31%.

On to `Cn1cc(-n2cnc3c(NCc4nc5cc(Cl)c(Cl)cc5[nH]4)nc(N4CCOCC4)nc32)cn1`, for which the % of control in [11] is 5.56%; in [12], -0.444%. Further, the % of inhibition in [13] was -5.23%.

For `CC[C@@H]1[C@H](F)C(=O)N[C@@H]1COc1nccc2cc(C(N)=O)c(OC)cc12` [ZIMLOVISERTIB], in experiment [14], the “% of inhibition” value is recorded as 16%.

As for `N#Cc1cccc(-c2c[nH]c3ncnc(N4CCOCC4)c23)c1`, the % of inhibition in experiment [15] came out at 34%.

In the case of `C=CC(=O)Nc1ccc(C(=O)Nc2[nH]nc3c2CN(C(=O)N[C@H](CN(C)C)c2ccccc2)C3(C)C)cc1`, the % of engagement in experiment [16] was -3.5%.
